Reference: patent US5447717A, “Cholesterol-lowering agents” (Merck & Co., Inc., priority 1993, dated 1995)

Legend:
Squalene Synthase = target: T1, Squalene Synthase (Rattus norvegicus, UniProt Q02769); assay: Squalene Synthase Assay (in vitro, rat liver microsomes); type: biochemical; settings: [4-14C]farnesyl pyrophosphate, 30° C., 20 minutes
T1 construct: from tissue; host or cells: rat liver microsomes (male Charles River CD rats, fed 0.1% lovastatin for 4 days)
T1 sequence (Q02769 1-416): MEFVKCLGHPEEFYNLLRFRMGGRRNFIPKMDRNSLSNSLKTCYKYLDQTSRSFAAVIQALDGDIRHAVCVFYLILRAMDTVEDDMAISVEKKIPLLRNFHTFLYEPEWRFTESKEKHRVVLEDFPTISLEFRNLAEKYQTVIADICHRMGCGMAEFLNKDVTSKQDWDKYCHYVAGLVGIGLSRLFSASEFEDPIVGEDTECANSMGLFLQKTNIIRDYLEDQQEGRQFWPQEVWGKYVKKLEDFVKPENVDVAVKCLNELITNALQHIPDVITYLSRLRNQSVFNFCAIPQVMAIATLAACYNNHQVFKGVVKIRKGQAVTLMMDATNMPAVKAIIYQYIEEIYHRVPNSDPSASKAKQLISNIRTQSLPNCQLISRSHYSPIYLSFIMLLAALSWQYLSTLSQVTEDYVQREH
Protocol: The intrinsic squalene synthase inhibitory activity of representative compounds of this invention was measured by the standard ill vitro protocol described below:
Preparation of Rat Liver Microsomes
Male, CHARLES RIVER CD® rats (120 to 150 g) were fed a diet containing 0.1% lovastatin for 4 days. The livers from these rats were homogenized in 5 volumes (mL/g) of ice cold 50 mM HEPES (4-(2-hydroxyethyl)-1-piperazine-ethanesulfonic acid), 5 mM EDTA(ethylenediaminetetraacetic acid) pH 7.5 with a Potter-Elvehjem type tissue grinder. The homogenate was centrifuged twice at 20,000 × g for 15 min. at 4° C., discarding the pellet each time. The supernatant was then centrifuged at 100,000 × g for 1 hr at 4° C. The resulting microsomal pellet was resuspended in a volume of the above homogenizing buffer equal to one-fifth the volume of the original homoSenate. This microsomal preparation has a protein concentration of about 7 mg/mL. The microsomal suspensions were stored in aliquots at -70° C. Squalene synthase activity in these aliquots is stable for a least several months.
Partial Purification of Prenyl Transferase
Prenyl transferase was purified to use in the enzymatic synthesis of radiolabelled farnesyl pyrophosphate. […]

Ras = settings: Hancock et al.; Casey et al.; Schafer et al.; cited from earlier work

IC50 (Squalene Synthase) | SMILES | Inhibition of Ras farnesylation in vivo (Ras)
0.4 nM | C=C(CCC12OC3C(=O)OC3(C(=O)O)C(C(=O)O)(O1)C(OC(=O)/C=C/C(C)CC(C)CC)C2O)C(OC(C)=O)C(C)Cc1ccccc1 (stereo not drawn) [Compound 1, IIA-β-Lactone] | –
– | CC[C@H](C)C(=O)O[C@H]1CCC=C2C=C[C@H](C)[C@H](CC[C@@H]3C[C@@H](O)CC(=O)O3)[C@H]21 [compactin] | Inhibition of Ras farnesylation in vivohas been demonstrated
– | CC[C@H](C)C(=O)O[C@H]1C[C@@H](C)C=C2C=C[C@H](C)[C@H](CC[C@@H]3C[C@@H](O)CC(=O)O3)[C@H]21 [lovastatin] | Inhibition of Ras farnesylation in vivohas been demonstrated
